Test results as given in patent US20230018014A1, “NOVEL COMPOUNDS AND FORMULATIONS” (PRO-AL MEDICO-TECHNOLOGIES, INC., priority 2019, published 2023).

Columns and labels:
[1] = test system: Neuron-Specific Enolase (NSE); assay: Neuron-Specific Enolase ELISA in pig blood plasma after cardiac arrest and resuscitation; format: in vivo; conditions: 2 hours post-ROSC
Experimental: The blood samples were collected from pigs subjected to cardiac arrest and resuscitation as described in Example 7. […] At 2 hours post-ROSC, blood samples were collected from a peripheral vein into tubes with EDTA and centrifuged for 15 minutes. The plasma samples were then used for the NSE assay based on the manufacturer's instructions.

neonatal cardiomyocytes [2] = assay: neonatal cardiomyocyte contraction under normoxic and hypoxic condition; format: cell-based
neonatal cardiomyocytes [3] = assay: cardiac Troponin T levels by flow cytometry in neonatal cardiomyocytes under hypoxia; format: cell-based; conditions: 4% oxygen, 5% CO2, 37° C., 24 hours
Experimental: (§1) This study aimed to investigate the positive protective role of T3, T3 nanoparticles and nanoparticles of T3 and phosphocreatine (PCR) in hypoxia-mediated cardiac cell insults, as well as its influences on vascularization and neuronal protection, under hypoxic condition. […] Mitochondrial function and sarcomere integrity were studied using an ATP-bioluminescence assay, and cardiac Troponin T levels using flow cytometry, respectively.
(§2) The cells were cultured in a hypoxia incubator with 4% oxygen, 5% CO2 at 37° C. for 24 hours. Following incubation, the cells were collected and compared with those of normal condition. Mitochondrial function and sarcomere integrity were studied using an ATP-bioluminescence assay, and cardiac Troponin T levels using flow cytometry after adding troponin T antibody conjugated with FITC.

swine = assay: porcine cardiac arrest model; format: in vivo
Experimental: In this study, swine were subjected to 7 minutes of cardiac arrest followed by manual CPR for up to 20 minutes with defibrillation every 2 minutes as necessary. […] In animals that achieved ROSC (unassisted systolic BP>80 mmHg for 1 min), further pharmacologic support was limited to 1 additional dose of the selected drug for hypotension. Hemodynamics, left ventricular (LV) function, plasma cardiac troponin I (cTnl) and other parameters were assessed at baseline and for up to 4 hours post-ROSC.

[4] = test system: T3-induced cells (HS5) and PC12 neuronal cells; assay: LDH release assay in T3-induced cells (HS5) and PC12 neuronal cells under hypoxia (Example 6); format: cell-based; conditions: hypoxia 24 hours; Epinephrine 0.5 μM
Experimental: (§3) The cells were then cultured under hypoxia for 24 hours. Results using ATP-bioluminescence and LDH release assays.

neonatal cardiomyocytes [5] = assay: ATP-bioluminescence assay in isolated neonatal cardiomyocytes under hypoxia; format: cell-based; conditions: 4% oxygen, 5% CO2, 37° C., 24 hours
Experimental: as §1, §2

[6] = test system: T3-induced cells (HS5) and PC12 neuronal cells; assay: ATP-bioluminescence in T3-induced cells (HS5) and PC12 neuronal cells under hypoxia (Example 6); format: cell-based; conditions: hypoxia 24 hours; Epinephrine 0.5 μM
Experimental: as §3

[7] = test system: chick embryo chorioallantoic membrane (CAM); assay: chick embryo chorioallantoic membrane (CAM) angiogenesis model; format: in vivo
From the text: as §1

[8] = within the first 5 minutes post-ROSC

With `CNC[C@H](O)c1ccc(O)c(O)c1` [Epinephrine] the “increase of NSE over baseline” value [1] was 64%, the Contraction/min (neonatal cardiomyocytes [2]; hypoxia) was 28 min⁻¹ and the Rhythm (neonatal cardiomyocytes [2]; hypoxia) was “Irregular”. For the same molecule, the Contraction/min (neonatal cardiomyocytes [2]; normoxia) was 186 min⁻¹, the Rhythm (neonatal cardiomyocytes [2]; normoxia) was “Regular” and the “Troponin T levels (in words)” value (neonatal cardiomyocytes [3]) was “close to untreated hypoxic cardiomyocytes”. For the same molecule, the “higher concentration of cTnl” value (swine; post-ROSC, versus the nanoparticle groups) was 2 fold, the “rate of ROSC (in words)” value (swine; swine, 7 minutes of cardiac arrest, intravenous, nanoparticles 0.125 mg/kg, Epinephrine 0.015 mg/kg) was “higher” and the survival duration (swine; swine, post-ROSC, up to 4 hours, nanoparticles 0.125 mg/kg, Epinephrine 0.015 mg/kg) was 116 ± 26 min. The “coronary sinus PCO2 compared to vehicle (in words)” value (swine; [8]) was “not”, the “coronary sinus pH compared to vehicle (in words)” value (swine; [8]) was “not” and the “LDH levels (in words)” value [4] was “showed an increase”. The “cardiac ATP levels (in words)” value (neonatal cardiomyocytes [5]) was “close to untreated hypoxic cardiomyocytes” and the “ATP levels (in words)” value [6] was “increased slightly”.
In the case of `N[C@@H](Cc1cc(I)c(Oc2ccc(O)c(I)c2)c(I)c1)C(=O)O` [T3, triiodothyronine], the “contraction levels in cardiomyocytes (in words)” value (neonatal cardiomyocytes [2]; hypoxia) is reported as “close to those of the cells under normal conditions”, the “enhanced angiogenesis compared to the control group” value [7] is reported as about 3 fold and the “Branch points (SEM)” value ([7]; 10 μg) is reported as 158.4 ± 5.5. For the same molecule, the “improvement in observed branch points in comparison with bFGF” value ([7]; T3 10 μg, Nano-T3 1 μg) was 37%.
For “bFGF: basic fibroblast growth factor, positive comparator in the CAM model”, the “Branch points (SEM)” value ([7]; bFGF, dose not given) was 115.4 ± 3.2.
